Results taken from patent US12692253B2, “Antimicrobial compounds and methods” (Curza Global, LLC, priority 2019, dated 2026).

How the values were obtained:
[1] = test system: E. coli S30 extract (bacterial protein synthesis); experiment: E. coli S30 extract coupled transcription-translation luciferase assay (inhibition of bacterial protein synthesis); assay type: biochemical; conditions: class by IC50 or % inhibition @ 1 μM, read-out: S30 IC50 (μM/% inhib.)
How it was run: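 Luciferase luminescence quantified inhibition of protein synthesis relative to water controls, with no-DNA reactions giving background. Compounds in 2-fold serial dilution (8 levels) were incubated 1 hour at 37 °C with E. coli S30 extract, amino acids and pBESTluc plasmid, then chilled to stop.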

P. aeruginosa (Pa) = experiment: Broth microdilution minimum inhibitory concentration (MIC), CLSI; assay type: cell-based; conditions: Pseudomonas aeruginosa, growth medium supplemented with sodium bicarbonate, read-out: Pa MIC + bicarb
How it was run: (§1)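 Bacteria grown at 35±2 °C to 0.5 McFarland turbidity were added at 5×10^4 CFU/well to triplicate two-fold compound series (8 dilutions). Media were cation-adjusted Mueller-Hinton broth alone or with sodium bicarbonate (6.25 or 25 mM final) or heat-inactivated human serum (0–50%), per modified CLSI method.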

E. coli (Ec) = experiment: as above; assay type: cell-based; conditions: Escherichia coli, growth medium supplemented with sodium bicarbonate, read-out: E. coli + bicarb MIC
How it was run: as §1

E. faecalis (Ef) = experiment: as above; assay type: cell-based; conditions: Enterococcus faecalis, growth medium supplemented with sodium bicarbonate, read-out: Ef + bicarb MIC
How it was run: as §1

A. baumannn (Ab) = experiment: as above; assay type: cell-based; conditions: Acinetobacter baumannii, read-out: Ab + bicarb MIC
How it was run: as §1

S. aureus (Sa) = experiment: as above; assay type: cell-based; conditions: Staphylococcus aureus, growth medium supplemented with sodium bicarbonate, read-out: Sa + bicarb MIC
How it was run: as §1

[2] = biological target: Rabbit Reticulocyte Lysate (eukaryotic protein synthesis); experiment: Rabbit reticulocyte lysate luciferase assay (inhibition of eukaryotic protein synthesis); assay type: biochemical; conditions: class by IC50 or % inhibition @ 1 μM, read-out: Rabbit reticulocyte IC50 (μM/% inhib.)
How it was run: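 Percent inhibition calculated against water-only controls from luminescence; background set by lysate lacking RNA. Compounds, 8-point 2-fold titration, incubated 90 minutes at 30° C with nuclease-treated rabbit reticulocyte lysate programmed with luciferase control RNA plus complete amino acids.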

Structure (SMILES): CC(Cc1ccc(-n2ccc(NC(=O)N3CCN(C(=O)[C@@](C)(N)CO)CC3)nc2=O)cc1)N1CCC2(CC1)CC(N)C2 (stereo partly drawn) [Compound 115]
- IC50 [1]: < 0.5 µM
- MIC (P. aeruginosa (Pa)): > 32 µg/mL
- MIC (E. coli (Ec)): < 8 µg/mL
- MIC (E. faecalis (Ef)): < 8 µg/mL
- MIC (A. baumannn (Ab)): > 32 µg/mL
- MIC (S. aureus (Sa)): < 8 µg/mL
- IC50 [2]: ≥ 1 µM

Structure (SMILES): CC(C)(N)C(=O)N1CCN(C(=O)Nc2ccn(-c3ccc(CCN4C[C@@H]5[C@@H](CN)[C@@H]5C4)cc3)c(=O)n2)CC1 [Compound 116]
- IC50 [1]: < 0.5 µM
- MIC (P. aeruginosa (Pa)): 8 to 32 µg/mL
- MIC (E. coli (Ec)): < 8 µg/mL
- MIC (E. faecalis (Ef)): 8 to 32 µg/mL
- MIC (A. baumannn (Ab)): < 8 µg/mL
- MIC (S. aureus (Sa)): < 8 µg/mL
- IC50 [2]: ≥ 1 µM

Structure (SMILES): CC(C)(N)C(=O)N1CCN(C(=O)Nc2ccn(-c3ccc(CCN4CC5CC5(CN)C4)cc3)c(=O)n2)CC1 (stereo not drawn) [Compound 117]
- IC50 [1]: < 0.5 µM
- MIC (P. aeruginosa (Pa)): 8 to 32 µg/mL
- MIC (E. coli (Ec)): < 8 µg/mL
- MIC (E. faecalis (Ef)): < 8 µg/mL
- MIC (A. baumannn (Ab)): 8 to 32 µg/mL
- MIC (S. aureus (Sa)): < 8 µg/mL
- IC50 [2]: ≥ 1 µM

Structure (SMILES): C[C@@](N)(CO)C(=O)N1CCN(C(=O)Nc2ccn(-c3ccc(CCN4CC5CC5(CN)C4)cc3)c(=O)n2)CC1 (stereo partly drawn) [Compound 120]
- IC50 [1]: < 0.5 µM
- MIC (P. aeruginosa (Pa)): 8 to 32 µg/mL
- MIC (E. coli (Ec)): < 8 µg/mL
- MIC (E. faecalis (Ef)): 8 to 32 µg/mL
- MIC (A. baumannn (Ab)): > 32 µg/mL
- MIC (S. aureus (Sa)): < 8 µg/mL
- IC50 [2]: ≥ 1 µM

Structure (SMILES): CC(CN1C[C@@H]2[C@@H](CN)[C@@H]2C1)c1ccc(-n2ccc(NC(=O)N3CCN(C(=O)C(C)(C)N)CC3)nc2=O)cc1 (stereo partly drawn) [Compound 121]
- IC50 [1]: 0.5 to 1 µM
- MIC (P. aeruginosa (Pa)): 8 to 32 µg/mL
- MIC (E. coli (Ec)): < 8 µg/mL
- MIC (E. faecalis (Ef)): 8 to 32 µg/mL
- MIC (A. baumannn (Ab)): > 32 µg/mL
- MIC (S. aureus (Sa)): < 8 µg/mL
- IC50 [2]: ≥ 1 µM

Structure (SMILES): CC(Cc1ccc(-n2ccc(NC(=O)N3CCN(C(=O)C(C)(C)N)CC3)nc2=O)cc1)N1C[C@@H]2[C@@H](CN)[C@@H]2C1 (stereo partly drawn) [Compound 122]
- IC50 [1]: < 0.5 µM
- MIC (P. aeruginosa (Pa)): < 8 µg/mL
- MIC (E. coli (Ec)): < 8 µg/mL
- MIC (E. faecalis (Ef)): < 8 µg/mL
- MIC (A. baumannn (Ab)): 8 to 32 µg/mL
- MIC (S. aureus (Sa)): < 8 µg/mL
- IC50 [2]: ≥ 1 µM

Structure (SMILES): CC(C)(N)C(=O)N1CCN(C(=O)Nc2ccn(-c3ccc(CCN4CC5CC5(CN)C4)c(F)c3)c(=O)n2)CC1 (stereo not drawn) [Compound 123]
- IC50 [1]: < 0.5 µM
- MIC (P. aeruginosa (Pa)): > 32 µg/mL
- MIC (E. coli (Ec)): < 8 µg/mL
- MIC (E. faecalis (Ef)): < 8 µg/mL
- MIC (A. baumannn (Ab)): > 32 µg/mL
- MIC (S. aureus (Sa)): < 8 µg/mL
- IC50 [2]: ≥ 1 µM

Structure (SMILES): CC(Cc1ccc(-n2ccc(NC(=O)N3CCN(C(=O)C(C)(C)N)C[C@H]3C)nc2=O)cc1)N1C[C@@H]2[C@@H](CN)[C@@H]2C1 (stereo partly drawn) [Compound 124]
- IC50 [1]: < 0.5 µM
- MIC (P. aeruginosa (Pa)): 8 to 32 µg/mL
- MIC (E. coli (Ec)): < 8 µg/mL
- MIC (E. faecalis (Ef)): < 8 µg/mL
- MIC (A. baumannn (Ab)): > 32 µg/mL
- MIC (S. aureus (Sa)): < 8 µg/mL
- IC50 [2]: ≥ 1 µM

Structure (SMILES): CC(Cc1ccc(-n2ccc(NC(=O)N3CCN(C(=O)[C@@](C)(N)CO)CC3)nc2=O)cc1)N1C[C@@H]2[C@@H](CN)[C@@H]2C1 (stereo partly drawn) [Compound 125]
- IC50 [1]: < 0.5 µM
- MIC (P. aeruginosa (Pa)): 8 to 32 µg/mL
- MIC (E. coli (Ec)): < 8 µg/mL
- MIC (E. faecalis (Ef)): < 8 µg/mL
- MIC (A. baumannn (Ab)): > 32 µg/mL
- MIC (S. aureus (Sa)): < 8 µg/mL
- IC50 [2]: ≥ 1 µM

Structure (SMILES): Cc1cc(-n2ccc(NC(=O)N3CCN(C(=O)C(C)(C)N)CC3)nc2=O)ccc1CCN1C[C@@H]2[C@@H](CN)[C@@H]2C1 [Compound 126]
- IC50 [1]: < 0.5 µM
- MIC (P. aeruginosa (Pa)): 8 to 32 µg/mL
- MIC (E. coli (Ec)): < 8 µg/mL
- MIC (E. faecalis (Ef)): 8 to 32 µg/mL
- MIC (A. baumannn (Ab)): 8 to 32 µg/mL
- MIC (S. aureus (Sa)): < 8 µg/mL
- IC50 [2]: ≥ 1 µM

Structure (SMILES): CC(C)(N)C(=O)N1CCN(C(=O)Nc2ccn(-c3ccc(CCN4C[C@@H]5[C@@H](CN)[C@@H]5C4)c(F)c3)c(=O)n2)CC1 [Compound 127]
- IC50 [1]: < 0.5 µM
- MIC (P. aeruginosa (Pa)): 8 to 32 µg/mL
- MIC (E. coli (Ec)): < 8 µg/mL
- MIC (E. faecalis (Ef)): 8 to 32 µg/mL
- MIC (A. baumannn (Ab)): > 32 µg/mL
- MIC (S. aureus (Sa)): 8 to 32 µg/mL
- IC50 [2]: ≥ 1 µM

Structure (SMILES): Cc1cc(-n2ccc(NC(=O)N3CCN(C(=O)[C@@](C)(N)CO)CC3)nc2=O)ccc1CCN1CC2CC2(CN)C1 (stereo partly drawn) [Compound 128]
- IC50 [1]: < 0.5 µM
- MIC (P. aeruginosa (Pa)): > 32 µg/mL
- MIC (E. coli (Ec)): < 8 µg/mL
- MIC (E. faecalis (Ef)): 8 to 32 µg/mL
- MIC (A. baumannn (Ab)): > 32 µg/mL
- MIC (S. aureus (Sa)): < 8 µg/mL
- IC50 [2]: ≥ 1 µM
